Measured values from ChEMBL document CHEMBL1614632, “Trend analysis of a database of intravenous pharmacokinetic parameters in humans for 670 drug compounds” (Drug Metab Dispos, 2008).

Experiments:
clinical [1] = settings: human, in vivo, iv, Vdss
clinical [2] = settings: human, in vivo, iv
clinical [3] = settings: human, in vivo, iv, CL
clinical [4] = settings: human, in vivo, iv, t1/2

Compound | Vd (clinical [1]) | MRT (clinical [2]) | clearance (clinical [3]) | half-life (clinical [4])
CN(Cc1cnc2nc(N)nc(N)c2n1)c1ccc(C(=O)N[C@@H](CCC(=O)O)C(=O)O)cc1 [METHOTREXATE] | 0.43 L/kg | 3.4 h | 2.1 mL/min/kg | –
CN1C(C(=O)Nc2ccccn2)=C(O)c2sccc2S1(=O)=O [TENOXICAM] | – | 92 h | 0.03 mL/min/kg | 67 h
NCC1(CC(=O)O)CCCCC1 [GABAPENTIN] | 0.71 L/kg | 7 h | 1.7 mL/min/kg | –
COc1ccc(C(CN(C)C)C2(O)CCCCC2)cc1 (stereo not drawn) [VENLAFAXINE] | – | 5.2 h | 14 mL/min/kg | 5 h
CCC(C)n1ncn(-c2ccc(N3CCN(c4ccc(OCC5COC(Cn6cncn6)(c6ccc(Cl)cc6Cl)O5)cc4)CC3)cc2)c1=O (stereo not drawn) [ITRACONAZOLE] | 7.4 L/kg | – | 5.1 mL/min/kg | 25 h
C/C=C1\NC(=O)[C@H]2CSSCC/C=C/[C@H](CC(=O)N[C@H](C(C)C)C(=O)N2)OC(=O)[C@H](C(C)C)NC1=O [ROMIDEPSIN] | – | 2.6 h | 7.4 mL/min/kg | 11 h
CCOC(=O)c1ncn2c1CN(C)C(=O)c1cc(F)ccc1-2 [FLUMAZENIL] | – | 1 h | 16 mL/min/kg | 0.78 h
CCC1=C(C)CN(C(=O)NCCc2ccc(S(=O)(=O)NC(=O)N[C@H]3CC[C@H](C)CC3)cc2)C1=O [GLIMEPIRIDE] | 0.19 L/kg | – | 0.5 mL/min/kg | 9.95 h
C[C@@H](O)[C@H]1C(=O)N2C(C(=O)O)=C(SCCN=CN)C[C@H]12 [IMIPENEM ANHYDROUS] | – | 1.3 h | 3 mL/min/kg | 0.95 h
CC[C@H]1OC(=O)[C@H](C)[C@@H](O[C@H]2C[C@@](C)(OC)[C@@H](O)[C@H](C)O2)[C@H](C)[C@@H](O[C@@H]2O[C@H](C)C[C@H](N(C)C)[C@H]2O)[C@](C)(O)C[C@@H](C)CN(C)[C@H](C)[C@@H](O)[C@]1(C)O [AZITHROMYCIN] | – | 57 h | 10 mL/min/kg | 69 h
C=CCc1ccccc1OCC(O)CNC(C)C (stereo not drawn) [ALPRENOLOL] | – | 3.6 h | 15 mL/min/kg | 2.5 h
CCCC(CCC)C(=O)O [VALPROIC ACID] | 0.14 L/kg | – | 0.16 mL/min/kg | 12 h
CN1CCC[C@H]1c1cccnc1 [NICOTINE] | – | 2.4 h | 18 mL/min/kg | 2 h
CCc1nn(CCCN2CCN(c3cccc(Cl)c3)CC2)c(=O)n1CCOc1ccccc1 [NEFAZODONE] | – | 1.1 h | 7.5 mL/min/kg | 1.2 h
Cc1ncc2n1-c1ccc(Cl)cc1C(c1ccccc1F)=NC2 [MIDAZOLAM] | – | 3.5 h | 5.3 mL/min/kg | 3.1 h
CO[C@H]1/C=C/O[C@@]2(C)Oc3c(C)c(O)c4c(O)c(c(/C=N/N5CCN(C)CC5)c(O)c4c3C2=O)NC(=O)/C(C)=C\C=C\[C@H](C)[C@H](O)[C@@H](C)[C@@H](O)[C@@H](C)[C@H](OC(C)=O)[C@@H]1C [RIFAMPIN] | 0.97 L/kg | 4.6 h | 3.5 mL/min/kg | –
O=C(N[C@H](CO)[C@H](O)c1ccc([N+](=O)[O-])cc1)C(Cl)Cl [CHLORAMPHENICOL] | – | 6.5 h | 2.4 mL/min/kg | 4.6 h
CNCC[C@@H](Oc1ccccc1C)c1ccccc1 [ATOMOXETINE] | – | 1.5 h | 9.3 mL/min/kg | 5.2 h
CN(C)CCCN1c2ccccc2CCc2ccc(Cl)cc21 [CLOMIPRAMINE] | 13 L/kg | 26 h | 8.2 mL/min/kg | –
CN(C)CCC(c1ccc(Cl)cc1)c1ccccn1 (stereo not drawn) [CHLORPHENIRAMINE] | 3.3 L/kg | 22 h | 2.5 mL/min/kg | –
O=c1[nH]c2ccccc2n1CCCN1CCC(n2c(=O)[nH]c3cc(Cl)ccc32)CC1 [DOMPERIDONE] | 3.4 L/kg | 6 h | 9.5 mL/min/kg | –
CN(C)CCCC1(c2ccc(F)cc2)OCc2cc(C#N)ccc21 (stereo not drawn) [CITALOPRAM] | – | 47 h | 4.3 mL/min/kg | 33 h
C=CC1=C(C(=O)O)N2C(=O)[C@@H](NC(=O)/C(=N\OCC(=O)O)c3csc(N)n3)[C@H]2SC1 [CEFIXIME] | 0.24 L/kg | – | 1 mL/min/kg | 3.2 h
COC(=O)O[C@@]12CO[C@@H]1C[C@H](O)[C@@]1(C)C(=O)[C@H](OC(C)=O)C3=C(C)[C@@H](OC(=O)[C@H](O)[C@@H](NC(=O)c4ccccc4)c4ccccc4)C[C@@](O)([C@@H](OC(=O)c4ccccc4)[C@H]21)C3(C)C [BMS-188797] | 6.9 L/kg | 13 h | 8.6 mL/min/kg | –
CN1CCN2c3ncccc3Cc3ccccc3C2C1 (stereo not drawn) [MIRTAZAPINE] | 4.2 L/kg | 8.8 h | 8 mL/min/kg | –
O=C(O)P(=O)(O)O [FOSCARNET] | 0.5 L/kg | – | 2.1 mL/min/kg | 4.7 h
